Several values for one entry are separate records, joined by “and”; a condition that tells them apart may be missing. Equal values may be shown once. Where a SMILES comes first, the peptide text is derived from it. [ ]: non-standard residue; d: D form. Aib = CC(C)(N)C(=O)O
Legend:
blood ionized calcium = experiment: Calcemic response in mice (blood ionized calcium); assay type: in vivo, mouse; settings: for iCa measurement, blood ionized calcium: individual mouse
Description: Fig. 5 VHH conjugation potentiates an in vivo response. a Schematic of the experiment performed in mice. b Measurement of blood ionized calcium levels in mice injected with PTH and conjugates. Data presented is from a single experiment. The double line break represents a discontinuity in the Y-axis. Mice (CD1 females, 11 weeks) were injected subcutaneously with the indicated ligand (dose = 35 nmol/kg). Blood was drawn at the indicated time points and analyzed for ionized calcium levels. Data points indicate mean ± standard error of the mean (SEM), n = 4. A two-sided t-test without corrections for multiple comparisons was used for comparisons. *p = 0.005 vs. vehicle. ^#p = 0.015 vs. vehicle. ^●p = 0.038 vs. M-PTH(1-14). °p = 0.008 vs. M-PTH(1-14). The sequence of M-PTH(1-14) used here differs from PTH(1-14) in Fig. 2 and is UVUEIQLMHQXAKW where U is Aib and X is homoarginine. Source data are provided in the Source Data File. […] Traces for the calcemic responses of individual mice is found in Supplementary Fig. 18. Source data can be found in the Source Data file.
Mice (CD1 female, age 11 weeks) were treated in accordance with the ethical guidelines adopted by Massachusetts General Hospital. […] Peptides and conjugates were administered at doses that allowed for differentiation between compounds with differing levels of in vivo activity. Statistical analyses were performed assuming Gaussian distribution of data. Mice (n = 4 per compound) were injected subcutaneously with vehicle (10 mM citric acid/150 mM NaCl/0.05% Tween-80, pH 5.0) or vehicle containing PTH or conjugate at a dose of 35 nmol/kg body weight. […] Blood was withdrawn just before injection (t = 0) or at times thereafter. Tail vein blood was collected and immediately analyzed. Blood Ca^2+ concentration was measured with a Siemens RapidLab 348 Ca2+/pH analyzer.

hPTHR1 = target: T1, hPTHR1 (Homo sapiens, UniProt Q03431); experiment: cAMP response (GloSensor luminescence), HEK293 stably expressing human PTHR1 (GP2.3); assay type: cell-based; settings: human PTHR1 cells
T1 construct: expressed in transfected cells; host or cells: HEK293 (clone GP2.3) with GloSensor cAMP reporter
T1 sequence (Q03431 27-593): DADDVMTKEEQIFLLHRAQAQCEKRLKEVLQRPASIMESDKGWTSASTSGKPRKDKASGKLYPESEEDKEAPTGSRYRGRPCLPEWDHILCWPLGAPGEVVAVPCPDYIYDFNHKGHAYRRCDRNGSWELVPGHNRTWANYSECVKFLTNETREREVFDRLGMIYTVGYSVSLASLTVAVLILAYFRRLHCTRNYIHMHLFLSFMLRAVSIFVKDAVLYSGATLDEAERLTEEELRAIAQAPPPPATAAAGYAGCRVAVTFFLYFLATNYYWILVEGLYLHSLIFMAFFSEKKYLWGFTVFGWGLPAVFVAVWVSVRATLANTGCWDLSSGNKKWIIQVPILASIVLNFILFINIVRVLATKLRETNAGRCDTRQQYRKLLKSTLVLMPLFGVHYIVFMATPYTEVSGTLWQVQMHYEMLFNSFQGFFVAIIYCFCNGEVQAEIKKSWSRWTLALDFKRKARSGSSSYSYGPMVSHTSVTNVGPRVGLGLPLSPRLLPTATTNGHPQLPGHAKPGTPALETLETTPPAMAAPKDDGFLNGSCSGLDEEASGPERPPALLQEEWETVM
Description: (§1) A HEK293 cell line stably expressing β-Arrestin2-YFP (GBR24) was constructed similarly. PTHR1_6E was produced using the Q5 Site-directed mutagenesis kit (NEB) and used to prepare a stably transfected HEK293-derived cell line. Annotated sequence data for all PTHR1 constructs are found in Supplementary Fig. 19. Aligned sequences of VHHs used in this study are shown in Supplementary Fig. 20.
(§2) These assays were performed as previously described. […] Confluent monolayers of cells were pre-incubated with CO2 independent medium containing D-luciferin (0.5 mM) at 37 °C until a stable baseline level of luminescence was established (20 min). Varying concentrations of ligands were then added, and the time course of luminescence response was recorded using BioTek plate reader.
(§3) Data were processed using Microsoft Excel and GraphPad Prism 6. Data from cAMP dose–response assays were analyzed using a sigmoidal dose–response model with variable slope. Data sets were statistically compared by using Student’s t test (two-tailed) assuming unequal variances for the two sets.

PTHR1YFPΔECD = target: T2, PTHR1YFPΔECD (Homo sapiens, UniProt Q03431); experiment: cAMP response (GloSensor luminescence), HEK293 stably expressing PTHR1YFPΔECD (GD5Y); assay type: cell-based; settings: peak GloSensor luminescence; mean ± SD, ≥3 independent experiments; read-out: EC50, cAMP induction
T2 construct: expressed in transfected cells; host or cells: HEK293 (clone GD5Y) with GloSensor cAMP reporter
T2 sequence (Q03431 with tags, fused parts or gaps limits assumed): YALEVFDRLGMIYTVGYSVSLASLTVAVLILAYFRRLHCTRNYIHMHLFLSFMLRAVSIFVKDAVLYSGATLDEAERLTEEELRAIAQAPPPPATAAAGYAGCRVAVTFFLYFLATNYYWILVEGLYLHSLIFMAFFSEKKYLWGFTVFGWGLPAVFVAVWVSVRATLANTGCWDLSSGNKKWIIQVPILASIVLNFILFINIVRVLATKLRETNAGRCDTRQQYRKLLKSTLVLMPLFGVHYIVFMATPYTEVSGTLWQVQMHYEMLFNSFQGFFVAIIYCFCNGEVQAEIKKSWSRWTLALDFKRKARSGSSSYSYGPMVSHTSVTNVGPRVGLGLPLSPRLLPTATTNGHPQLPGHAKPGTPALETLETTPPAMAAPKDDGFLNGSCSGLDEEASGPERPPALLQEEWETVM
Description: as §1, §2, §3

PTHR1GFP = target: T3, PTHR1GFP (Homo sapiens, UniProt Q03431); experiment: cAMP response (GloSensor luminescence), HEK293 stably expressing PTHR1GFP (GPG10); assay type: cell-based
T3 sequence (Q03431 27-593): T1 sequence (Q03431 27-593)
Description: (§4) These assays were performed as previously described. Briefly, HEK-293-derived cell lines that stably express the Glosensor cAMP reporter (Promega Corp.)[30] and PTHR1, a PTHR1 variant, or PTHR2 were seeded into white sided 96-well plates (50,000 cells/well) and grown to confluency. Confluent monolayers of cells were pre-incubated with CO2 independent medium containing D-luciferin (0.5 mM) at 37 °C until a stable baseline level of luminescence was established (20 min). Varying concentrations of ligands were then added, and the time course of luminescence response was recorded using BioTek plate reader. The maximal luminescence response (observed 12–16 min after ligand addition) was used to construct dose-response data sets (Table 1, Supplementary Fig. 6).
as §3
Supplementary Figure 1. […]
GFP variant known as pHluorin2 engrafted into the receptor(ref. 19, main text). c) HEK293 cells stably expressing PTHR1-GFP were treated with varied doses of the indicated peptides or conjugates and activation was assessed by measuring luminescence from a cAMP-activated luciferase variant. Values listed represent EC50 values (mean ± SD). Each value comes from ≥ 3 independent experiments. Further details, including the number of replicates for each measurement and the normalized maximal responses induced, are reported in Supplementary Table 1. […]
than 5% of the maximal response induced for that cell line.
Peptide or conjugate PTHR1GFP

hPTHR2 = target: T4, hPTHR2 (Homo sapiens, UniProt P49190); experiment: cAMP response (GloSensor luminescence), HEK293 stably expressing hPTHR2; assay type: cell-based; settings: for EC50: peak GloSensor luminescence, mean ± SD, n = 3-4, read-out: EC50, cAMP induction
T4 construct: expressed in transfected cells
T4 sequence (P49190 25-550): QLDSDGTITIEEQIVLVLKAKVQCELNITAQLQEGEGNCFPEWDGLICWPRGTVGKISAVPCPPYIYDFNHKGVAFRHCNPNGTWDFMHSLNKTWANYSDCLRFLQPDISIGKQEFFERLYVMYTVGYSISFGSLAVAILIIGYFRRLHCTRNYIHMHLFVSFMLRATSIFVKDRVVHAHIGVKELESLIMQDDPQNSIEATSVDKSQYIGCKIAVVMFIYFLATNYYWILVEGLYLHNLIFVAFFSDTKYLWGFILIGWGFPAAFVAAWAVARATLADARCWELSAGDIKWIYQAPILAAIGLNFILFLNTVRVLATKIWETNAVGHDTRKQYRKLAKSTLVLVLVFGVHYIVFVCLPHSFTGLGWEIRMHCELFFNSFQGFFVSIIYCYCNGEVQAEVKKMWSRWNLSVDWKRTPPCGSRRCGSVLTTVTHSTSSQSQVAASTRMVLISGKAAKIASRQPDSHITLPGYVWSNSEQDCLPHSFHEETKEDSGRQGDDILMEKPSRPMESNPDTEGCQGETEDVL
Description: as §4, §3

With “UVUEIQLMHQXAKW [M-PTH(1-14), modified PTH(1-14) analog used in mice, UVUEIQLMHQXAKW, U is Aib and X is homoarginine]” the “blood ionized calcium response” value (blood ionized calcium; 35 nmol/kg s.c., CD1 female mice, n = 4, single experiment) was “little if any activity”, the “iCa measurement, blood ionized calcium” value (blood ionized calcium; 1 h after 35 nmol/kg s.c., 1st of 4 in group (mouse # 5, 9, 13)) was 1.36 mM and the “iCa measurement, blood ionized calcium” value (blood ionized calcium; 1 h after 35 nmol/kg s.c., 2nd of 4 in group (mouse # 6, 10, 14)) was 1.34 mM. For the same molecule, the “iCa measurement, blood ionized calcium” value (blood ionized calcium; 1 h after 35 nmol/kg s.c., 3rd of 4 in group (mouse # 7, 11, 15)) was 1.29 mM, the “iCa measurement, blood ionized calcium” value (blood ionized calcium; 1 h after 35 nmol/kg s.c., 4th of 4 in group (mouse # 8, 12, 16)) was 1.33 mM and the “iCa measurement, blood ionized calcium” value (blood ionized calcium; 2 h after 35 nmol/kg s.c., 1st of 4 in group (mouse # 5, 9, 13)) was 1.31 mM. For the same molecule, the “iCa measurement, blood ionized calcium” value (blood ionized calcium; 2 h after 35 nmol/kg s.c., 2nd of 4 in group (mouse # 6, 10, 14)) was 1.32 mM, the “iCa measurement, blood ionized calcium” value (blood ionized calcium; 2 h after 35 nmol/kg s.c., 3rd of 4 in group (mouse # 7, 11, 15)) was 1.27 mM and the “iCa measurement, blood ionized calcium” value (blood ionized calcium; 2 h after 35 nmol/kg s.c., 4th of 4 in group (mouse # 8, 12, 16)) was 1.28 mM. For the same molecule, the “ionized Ca, group value quoted by reviewer” value (blood ionized calcium; 2h after injection, 35 nmol/kg s.c.) was 1.29 mM, the “iCa measurement, blood ionized calcium” value (blood ionized calcium; 4 h after 35 nmol/kg s.c., 1st of 4 in group (mouse # 5, 9, 13)) was 1.31 mM and the “iCa measurement, blood ionized calcium” value (blood ionized calcium; 4 h after 35 nmol/kg s.c., 2nd of 4 in group (mouse # 6, 10, 14)) was 1.33 mM. For the same molecule, the “iCa measurement, blood ionized calcium” value (blood ionized calcium; 4 h after 35 nmol/kg s.c., 3rd of 4 in group (mouse # 7, 11, 15)) was 1.29 mM, the “iCa measurement, blood ionized calcium” value (blood ionized calcium; 4 h after 35 nmol/kg s.c., 4th of 4 in group (mouse # 8, 12, 16)) was 1.29 mM and the “iCa measurement, blood ionized calcium” value (blood ionized calcium; 8 h after 35 nmol/kg s.c., 1st of 4 in group (mouse # 5, 9, 13)) was 1.33 mM. For the same molecule, the “iCa measurement, blood ionized calcium” value (blood ionized calcium; 8 h after 35 nmol/kg s.c., 2nd of 4 in group (mouse # 6, 10, 14)) was 1.30 mM, the “iCa measurement, blood ionized calcium” value (blood ionized calcium; 8 h after 35 nmol/kg s.c., 3rd of 4 in group (mouse # 7, 11, 15)) was 1.28 mM and the “iCa measurement, blood ionized calcium” value (blood ionized calcium; 8 h after 35 nmol/kg s.c., 4th of 4 in group (mouse # 8, 12, 16)) was 1.30 mM.

In the case of “G3-PTH(1-14): PTH(1-14) analog with an N-terminal triglycine extension (SVSEIQLMHNLGKH; N-terminal triglycine extension; UniProt P01270 32-45, looked up, fragment)”, the “cAMP activity” value (hPTHR1) is reported as “reduction in potency”.

For `CC[C@H](C)[C@H](NC(=O)[C@H](CCC(=O)O)NC(=O)[C@H](CO)NC(=O)[C@@H](NC(=O)[C@@H](N)CO)C(C)C)C(=O)N[C@@H](CCC(N)=O)C(=O)N[C@@H](CC(C)C)C(=O)N[C@@H](CCSC)C(=O)N[C@@H](Cc1c[nH]cn1)C(=O)N[C@@H](CC(N)=O)C(=O)N[C@@H](CC(C)C)C(=O)NCC(=O)N[C@@H](CCCCN)C(=O)N[C@@H](Cc1c[nH]cn1)C(=O)N[C@@H](CC(C)C)C(=O)N[C@@H](CC(N)=O)C(=O)N[C@@H](CO)C(=O)N[C@@H](CCSC)C(=O)N[C@@H](CCC(=O)O)C(=O)N[C@@H](CCCNC(=N)N)C(=O)N[C@H](C(=O)N[C@@H](CCC(=O)O)C(=O)N[C@@H](Cc1c[nH]c2ccccc12)C(=O)N[C@@H](CC(C)C)C(=O)N[C@@H](CCCNC(=N)N)C(=O)N[C@@H](CCCCN)C(=O)N[C@@H](CCCCN)C(=O)N[C@@H](CC(C)C)C(=O)N[C@@H](CCC(N)=O)C(=O)N[C@@H](CC(=O)O)C(=O)N[C@H](C(=O)N[C@@H](Cc1c[nH]cn1)C(=O)N[C@@H](CC(N)=O)C(=O)N[C@@H](Cc1ccccc1)C(=O)N[C@@H](CS)C(N)=O)C(C)C)C(C)C` [PTH(1-34)], the EC50 (PTHR1YFPΔECD) was > 500 nM and 689 nM, the EC50 (PTHR1GFP) was 0.4 ± 0.8 nM and the EC50 (hPTHR2) was 1.45 ± 2.42 nM.

In the case of `CC[C@H](C)[C@H](NC(=O)[C@H](CCC(=O)O)NC(=O)C(C)(C)NC(=O)[C@@H](NC(=O)[C@H](C)N)C(C)C)C(=O)N[C@@H](CCC(N)=O)C(=O)N[C@@H](CC(C)C)C(=O)N[C@@H](CCSC)C(=O)N[C@@H](Cc1c[nH]cn1)C(=O)N[C@@H](CCC(N)=O)C(=O)N[C@@H](CCCNC(=N)N)C(=O)N[C@@H](CS)C(N)=O` [PTH(1-11)] (H-AV[Aib]EIQLMHQRC-NH2), the EC50 (PTHR1YFPΔECD) is reported as 246 nM, the EC50 (PTHR1GFP) is reported as 79 ± 45 nM and the “response at 100 uM” value (hPTHR2; 100 uM) is reported as 20%. The EC50 (hPTHR2) was > 100000 nM.

Source: paper PMC7190724, “Improved GPCR ligands from nanobody tethering” (Nature Communications, 2020)
